The source of these data is ChEMBL document CHEMBL1153082, “Design and synthesis of N(6)-substituted-4'-thioadenosine-5'-uronamides as potent and selective human A(3) adenosine receptor agonists” (Bioorg Med Chem, 2009).

The term Ki denotes the equilibrium dissociation constant of an inhibitor or competing ligand from its target. As usually defined, the inhibition is the percentage by which the read-out fell short of the control. A high value points to a strong effect.

Test [1] addresses T1, Adenosine receptor A1 (Homo sapiens, UniProt P30542).
T1 sequence (P30542 whole entry): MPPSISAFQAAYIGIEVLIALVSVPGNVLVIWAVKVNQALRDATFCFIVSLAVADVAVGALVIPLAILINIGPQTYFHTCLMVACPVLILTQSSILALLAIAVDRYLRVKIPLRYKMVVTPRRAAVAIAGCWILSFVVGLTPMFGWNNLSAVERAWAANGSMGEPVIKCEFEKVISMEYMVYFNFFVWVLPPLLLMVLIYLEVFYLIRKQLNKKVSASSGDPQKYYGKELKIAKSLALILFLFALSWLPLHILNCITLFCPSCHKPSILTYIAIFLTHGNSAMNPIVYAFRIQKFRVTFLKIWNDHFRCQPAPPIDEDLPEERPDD
The test can be described thus: biochemical.

A further test has as its target T2, Adenosine receptor A3 (Homo sapiens, UniProt P0DMS8).
T2 sequence (P0DMS8 whole entry): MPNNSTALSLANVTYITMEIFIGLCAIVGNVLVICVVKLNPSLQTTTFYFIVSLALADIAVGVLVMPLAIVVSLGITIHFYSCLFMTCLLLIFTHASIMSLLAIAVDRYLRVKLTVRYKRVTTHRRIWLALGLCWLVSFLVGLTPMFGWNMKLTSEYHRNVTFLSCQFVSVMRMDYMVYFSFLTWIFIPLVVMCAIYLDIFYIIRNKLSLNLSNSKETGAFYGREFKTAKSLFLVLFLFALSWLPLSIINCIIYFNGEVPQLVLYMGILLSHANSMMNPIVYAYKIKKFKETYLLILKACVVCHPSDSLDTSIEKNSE
In words: biochemical.

Test [2] deals with T3, Adenosine receptor A2a (Homo sapiens, UniProt P29274). The test can be described thus: biochemical.
T3 sequence (P29274 whole entry): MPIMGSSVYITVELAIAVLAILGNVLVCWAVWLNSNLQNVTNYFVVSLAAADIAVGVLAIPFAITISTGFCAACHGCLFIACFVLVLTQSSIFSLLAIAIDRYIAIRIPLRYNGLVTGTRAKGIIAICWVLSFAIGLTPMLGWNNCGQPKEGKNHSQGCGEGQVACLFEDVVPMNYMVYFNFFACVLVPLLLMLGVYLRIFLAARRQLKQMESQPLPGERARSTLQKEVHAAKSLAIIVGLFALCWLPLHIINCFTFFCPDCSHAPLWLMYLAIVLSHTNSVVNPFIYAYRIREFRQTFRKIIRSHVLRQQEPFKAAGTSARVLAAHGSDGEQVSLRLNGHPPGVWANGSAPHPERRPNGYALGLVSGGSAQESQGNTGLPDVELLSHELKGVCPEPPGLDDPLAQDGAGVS
Test [3] addresses T3, Adenosine receptor A2a. The test can be described thus: Displacement of [3H]CGS21680 from human adenosine A2A receptor expressed in CHO cells at 1 uM. In kind it is cell-based. (Displacement assays read how much labelled ligand stays bound in the presence of the test substance.)
For test [4], the target named is T4, Adenosine receptor A1 (Homo sapiens) (UniProt P30542).
T4 sequence (whole entry): T1 sequence (P30542 whole entry)
In words: Displacement of [3H]R-PIA from human adenosine A1 receptor expressed in CHO cells at 1 uM. In kind it is cell-based.

Test [5] addresses T1, Adenosine receptor A1.
The target of test [6] is T3, Adenosine receptor A2a.

For the compound `O=C(NCC1CC1)[C@H]1S[C@@H](n2cnc3c(NCc4cccc(I)c4)ncnc32)[C@H](O)[C@@H]1O`, the inhibition constant Ki at Adenosine receptor A1 [1] turned out to be 0.159 µM; on Adenosine receptor A3, 0.00216 µM; on Adenosine receptor A2a [2] it was 1.6 µM.
Turning to `O=C(NCc1cccc(F)c1)[C@H]1S[C@@H](n2cnc3c(NCc4cccc(I)c4)ncnc32)[C@H](O)[C@@H]1O`, at Adenosine receptor A3, the Ki worked out at 0.0611 µM. For the same compound, the inhibition stood at 44% on Adenosine receptor A2a [3] and 25% in test [4].
The matching figures for `O=C(NCc1cccc2ccccc12)[C@H]1S[C@@H](n2cnc3c(NCc4cccc(I)c4)ncnc32)[C@H](O)[C@@H]1O`: 1.2 µM, 11% and 20%.
On to `Cc1cccc(CNC(=O)[C@H]2S[C@@H](n3cnc4c(NCc5cccc(I)c5)ncnc43)[C@H](O)[C@@H]2O)c1`, for which the inhibitory constant (Ki) came to 4.07 µM on Adenosine receptor A1 [1] and 0.0949 µM on Adenosine receptor A3. On Adenosine receptor A2a [3], the inhibition came to 37%.
The compound `O=C(NC1CCCCC1)[C@H]1S[C@@H](n2cnc3c(NCc4cccc(I)c4)ncnc32)[C@H](O)[C@@H]1O` had an inhibition constant Ki at Adenosine receptor A3 of 0.0354 µM. In addition, the inhibition at Adenosine receptor A2a [3] turned out to be 35%; in test [4], 28%.
For the compound `CCNC(=O)[C@H]1S[C@@H](n2cnc3c(NC)ncnc32)[C@H](O)[C@@H]1O`, the results for the inhibitory constant (Ki) on Adenosine receptor A1 [1] and at Adenosine receptor A3 were 0.00483 µM and 0.00097 µM, respectively. The compound further registered an inhibition at Adenosine receptor A2a [3] of 38%.
Take `CNc1ncnc2c1ncn2[C@@H]1S[C@H](C(=O)NC2CCCC2)[C@@H](O)[C@H]1O`: the Ki on Adenosine receptor A1 [1] came to 0.0486 µM; at Adenosine receptor A3, 0.00097 µM. In addition, the inhibition at Adenosine receptor A2a [3] came to 27%.
Take `CCNC(=O)[C@H]1S[C@@H](n2cnc3c(NCc4cccc(I)c4)ncnc32)[C@H](O)[C@@H]1O`: the Ki at Adenosine receptor A1 [1] is 0.0054 µM; at Adenosine receptor A3 it was 0.00042 µM; at Adenosine receptor A2a [2] it was 0.0576 µM.
As to `O=C(NCc1cccc(Cl)c1)[C@H]1S[C@@H](n2cnc3c(NCc4cccc(I)c4)ncnc32)[C@H](O)[C@@H]1O`, at Adenosine receptor A3, the affinity corresponds to a Ki of 0.144 µM. Also, the figures for the inhibition (on Adenosine receptor A2a [3]; in test [4]) were 26% and 25%, respectively.
For `CNC(=O)[C@H]1S[C@@H](n2cnc3c(NC)ncnc32)[C@H](O)[C@@H]1O`, the Ki was found to be 0.0695 µM on Adenosine receptor A1 [1] and 0.00119 µM on Adenosine receptor A3. Moreover, on Adenosine receptor A2a [3], the inhibition was 20%.
For `O=C(NC1CC1)[C@H]1S[C@@H](n2cnc3c(NCc4cccc(I)c4)ncnc32)[C@H](O)[C@@H]1O`, the Ki at Adenosine receptor A3 was 0.00303 µM; at Adenosine receptor A2a [2], 0.0152 µM.
At Adenosine receptor A3, `Cc1ccc(CNC(=O)[C@H]2S[C@@H](n3cnc4c(NCc5cccc(I)c5)ncnc43)[C@H](O)[C@@H]2O)cc1` showed an inhibition constant Ki of 0.135 µM. Also, the inhibition was determined as 28% on Adenosine receptor A2a [3] and 15% in test [4].
As for `O=C(NC1CCC1)[C@H]1S[C@@H](n2cnc3c(NCc4cccc(I)c4)ncnc32)[C@H](O)[C@@H]1O`, the Ki was 0.0236 µM on Adenosine receptor A1 [1], 0.00117 µM on Adenosine receptor A3 and 0.122 µM at Adenosine receptor A2a [2].
The compound `COc1ccccc1CNC(=O)[C@H]1S[C@@H](n2cnc3c(NCc4cccc(I)c4)ncnc32)[C@H](O)[C@@H]1O` showed a Ki at Adenosine receptor A3 of 0.097 µM. Moreover, the inhibition at Adenosine receptor A2a [3] is 23%; in test [4] it was 34%.
With `CNc1ncnc2c1ncn2[C@@H]1S[C@H](C(=O)NC2CCC2)[C@@H](O)[C@H]1O`, the inhibition constant (Ki) at Adenosine receptor A1 [1] was 0.00627 µM; at Adenosine receptor A3, 0.00104 µM; at Adenosine receptor A2a [2] it was 0.108 µM.
At Adenosine receptor A3, `Cc1ccccc1CNC(=O)[C@H]1S[C@@H](n2cnc3c(NCc4cccc(I)c4)ncnc32)[C@H](O)[C@@H]1O` returned an inhibitory constant (Ki) of 0.031 µM. Moreover, the inhibition at Adenosine receptor A2a [3] was determined as 31%; in test [4] it was 18%.
Regarding `CNc1ncnc2c1ncn2[C@@H]1S[C@H](C(=O)NCc2cccc(I)c2)[C@@H](O)[C@H]1O`, on Adenosine receptor A3, the inhibitory constant (Ki) came to 0.0156 µM. Further, the inhibition (at Adenosine receptor A2a [3]; in test [4]) was 24% each time.
Consider `CNc1ncnc2c1ncn2[C@@H]1S[C@H](C(=O)NCC2CC2)[C@@H](O)[C@H]1O`, for which the results for the inhibition constant Ki at Adenosine receptor A1 [1] and at Adenosine receptor A3 were 0.0331 µM and 0.00135 µM, respectively. The compound further registered an inhibition at Adenosine receptor A2a [3] of 45%.
As to `O=C(NCCc1ccccc1)[C@H]1S[C@@H](n2cnc3c(NCc4cccc(I)c4)ncnc32)[C@H](O)[C@@H]1O`, the affinity at Adenosine receptor A3 corresponds to a Ki of 0.433 µM. Further, the inhibition at Adenosine receptor A2a [3] came out at 38%; in test [4], 20%.
With `CNc1ncnc2c1ncn2[C@@H]1S[C@H](C(=O)NC2CC2)[C@@H](O)[C@H]1O`, the Ki on Adenosine receptor A1 [1] amounted to 0.00658 µM; at Adenosine receptor A3, 0.00216 µM; at Adenosine receptor A2a [2] it was 0.161 µM.
Turning to `O=C(NC(c1ccccc1)c1ccccc1)[C@H]1S[C@@H](n2cnc3c(NCc4cccc(I)c4)ncnc32)[C@H](O)[C@@H]1O`, affinity at Adenosine receptor A3 was put at a Ki of 0.116 µM. The compound further returned an inhibition in test [4] of 17%.
Turning to `CCOc1ccccc1CNC(=O)[C@H]1S[C@@H](n2cnc3c(NCc4cccc(I)c4)ncnc32)[C@H](O)[C@@H]1O`, at Adenosine receptor A3, the Ki turned out to be 0.113 µM. For the same compound, the inhibition at Adenosine receptor A2a [3] worked out at 20%; in test [4], 12%.
On to `CNC(=O)[C@H]1S[C@@H](n2cnc3c(NCc4cccc(I)c4)ncnc32)[C@H](O)[C@@H]1O`, for which the inhibition constant Ki at Adenosine receptor A1 [5] worked out at 0.0202 µM; on Adenosine receptor A2a [6], 0.475 µM.
